SMILES strings stand for the structures.

The target of data set [1] is T1, endogenous AEP in human B lymphoblastoid pala cells (Homo sapiens, UniProt Q99538).
T1 construct: human B lymphoblastoid pala cells, which are rich in endogenous AEP; endogenous in cells; host or cells: human B lymphoblastoid Pala cells
T1 sequence (Q99538 18-323): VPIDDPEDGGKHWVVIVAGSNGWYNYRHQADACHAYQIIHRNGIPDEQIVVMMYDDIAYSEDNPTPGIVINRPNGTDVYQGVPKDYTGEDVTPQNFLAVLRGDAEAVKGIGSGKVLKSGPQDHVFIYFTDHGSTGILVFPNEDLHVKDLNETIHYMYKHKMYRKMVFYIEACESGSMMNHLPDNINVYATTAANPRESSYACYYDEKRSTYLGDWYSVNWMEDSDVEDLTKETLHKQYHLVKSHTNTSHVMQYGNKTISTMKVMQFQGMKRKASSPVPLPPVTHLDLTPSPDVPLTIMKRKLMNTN
Nature of the data set: AEP inhibition in intact Pala cells. The note with it: 2 hrs incubation, residual enzymatic activity in lysate. The class given is cell-based. On the procedure:
The cells were incubated with inhibitors for 2 hrs then cells washed, harvested and lysed and the residual enzymatic activity was determined. Lysate was normalized by Bradford assay and the experiment was performed in triplicate and the mean results and SEM were plotted.
In an attempt to assess the activity of the compounds in intact cells, the compounds were incubated with human B lymphoblastoid pala cells, which are rich in endogenous AEP and have been used for inhibiting AEP in cellular assay.

Data set [2] concerns the target T2, AEP (Homo sapiens, UniProt Q99538).
T2 construct: tested with purified active AEP, IC50 values for the top 8 candidates were found
T2 sequence (Q99538 18-323 limits assumed): T1 sequence (Q99538 18-323)
Nature of the data set: DTT / L-cysteine reversibility of AEP inhibition. The format is biochemical. The note with it: 10 mM DTT or L-cysteine added after 15 min. The procedure: AEP was reacted with specified inhibitor, after 15 min 10 mM DTT or L-cysteine was added to the reaction and the fluorescent signal was read for an additional 15 min. At the end of the second 15 min incubation, the percentage of product formed in the presence of each compound was determined in comparison to the DMSO control reaction.
Although it is not intended that embodiments of this disclosure be limited by any particular mechanism, to gain additional insight into the mechanism utilized by the inhibitors for abrogation of AEP activity, their reversibility in the presence of free thiols was determined. The addition of a strong reducing agent, such as DTT, or a weaker reducing agent, L-cysteine, to an inhibited reaction can be used to out-compete the inhibitory agent and restore catalytic activity to an enzyme with an active-site thiol residue. Here, a similar approach was used by adding a reducing agent, either DTT or L-cysteine, to a reaction, in which AEP had been incubated with a specified inhibitor, in an attempt to reverse the effects of the inhibitor. […] For compounds BB1 and 38, this increase in enzymatic activity may be due to the reduction of a disulfide linkage between the inhibitor and the enzyme, since these compounds contain thiols. Compound 10 contains a thiocyanate and may undergoes nucleophilic attack by the enzyme's active-site thiolate to form a thioimidate enzyme-inhibitor complex. Under acidic conditions, this complex is reducible by either a strong reducing agent, such as DTT, or the weaker L-cysteine.

Data set [3] has as its system amyloid precursor protein (APP) cleavage. Nature of the data set: APP cleavage in OGD-treated primary cortical neurons. The format is cell-based. On the procedure: A. AEP activity, measured in primary neuronal cultures with 5 μM Cbz-Ala-Ala-Asn-AMC (x-axis denotes neurons were treated with 0.1 μM or 1.0 μM specified compound). B. Caspase activity, measured in primary neuronal cultures with 5 μM Ac-Asp-Glu-Val-Asp-AMC. C. Cathepsin activity, measured in primary neuronal cultures with 5 μM D-Val-Leu-Lys-AMC. D. Inhibition of APP cleavage. Lysates of primary cortical neurons pre-incubated with compounds for 30 min, underwent OGD for 4 hrs, were reperfused for 18 hrs (normoxia neurons remained at normoxic conditions). E. APP can be cleaved in a dose-dependent manner. Lysates of primary cortical neurons pre-incubated with compounds for 30 min, underwent OGD for 4 hrs, were reperfused for 18 hrs (normoxia neurons remained at normoxic conditions).
Depriving cells of oxygen and glucose is a cellular model that is employed to trigger acidosis in cultured cells. The efficacy of the compounds in a cellular model of oxygen-glucose deprivation (OGD) was determined in an effort to mimic the effects of stroke in primary cultured neurons. As a result of depriving neurons of oxygen and glucose-containing medium, AEP activity was doubled (FIG. 7A, ‘DMSO-Norm’ compared to ‘DMSO-OGD’), while Caspase-3 and Cathepsin activities remained relatively unchanged. […] Cleavage of APP is observed in response to only DMSO treatment (FIG. 7D, lane 2), and it appears that upon the treatment of 1 μM of compounds 10, 11, and 12, and just 0.1 μM of compound s31, 38 and 64, the cleavage was blocked, presumably due to AEP inhibition.

A short description of data set [4]: BBB-PAMPA permeability assay. The format is in vitro ADME. (The PAMPA barrier holds no transporters, so it reflects passive diffusion.)
Data set [5] has as its target CYP3A4 (Homo sapiens, UniProt P08684). Nature of the data set: CYP inhibition screening, CYP3A4-Midazolam. The format is in vitro ADME.
In data set [6] the test system is CYP3A. Nature of the data set: CYP inhibition screening, CYP3A-Testosterone. The format is in vitro ADME.
In data set [7] the target is CYP2C9 (Homo sapiens, UniProt P11712). Nature of the data set: CYP inhibition screening, CYP2C9. The format is in vitro ADME.
Data set [8] concerns the target CYP2D6 (Homo sapiens, UniProt P10635). Put plainly: CYP inhibition screening, CYP2D6. The format is in vitro ADME.
Data set [9] has as its target CYP2C19 (Homo sapiens, UniProt P33261). Put plainly: CYP inhibition screening, CYP2C19. The format is in vitro ADME.
Data set [10] has as its target T3, CYP1A2 (Homo sapiens, UniProt P05177).
T3 sequence (P05177 1-516): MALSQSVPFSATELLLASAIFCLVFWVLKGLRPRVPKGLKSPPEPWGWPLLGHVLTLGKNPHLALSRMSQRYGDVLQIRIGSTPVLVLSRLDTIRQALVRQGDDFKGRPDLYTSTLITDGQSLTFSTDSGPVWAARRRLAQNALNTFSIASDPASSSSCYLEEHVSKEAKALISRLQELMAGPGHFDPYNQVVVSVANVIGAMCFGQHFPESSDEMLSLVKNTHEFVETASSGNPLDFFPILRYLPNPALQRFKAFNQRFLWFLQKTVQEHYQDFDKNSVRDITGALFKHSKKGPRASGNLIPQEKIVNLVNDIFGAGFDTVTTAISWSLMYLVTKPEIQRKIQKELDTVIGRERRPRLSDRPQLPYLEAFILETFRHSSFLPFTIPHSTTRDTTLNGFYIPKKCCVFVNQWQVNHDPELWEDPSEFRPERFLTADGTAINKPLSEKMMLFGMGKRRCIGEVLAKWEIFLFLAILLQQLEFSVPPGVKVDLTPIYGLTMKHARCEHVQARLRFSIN
Nature of the data set: CYP inhibition screening, CYP1A2. The format is in vitro ADME.

Data set [11] relates to Caco-2 monolayer. Put plainly: Caco-2 monolayer permeability screen.
Protocol: To explore the in vitro ADME profiles of the compounds, additional tests were conducted.
Data set [12] is described as follows: Human liver microsomal stability screen. Particulars: Human liver microsomes. In general terms: Liver microsomes are a subcellular fraction often used to study metabolism.
Data set [13] in a line: Mouse liver microsomal stability screen. Particulars: Mouse liver microsomes.
The target of data set [14] is Cathepsin-L (Homo sapiens, UniProt P07711). Put plainly: Specificity assay against Cathepsin-L. The format is biochemical.
Cathepsin-L, sequence (P07711 114-333, species assumed): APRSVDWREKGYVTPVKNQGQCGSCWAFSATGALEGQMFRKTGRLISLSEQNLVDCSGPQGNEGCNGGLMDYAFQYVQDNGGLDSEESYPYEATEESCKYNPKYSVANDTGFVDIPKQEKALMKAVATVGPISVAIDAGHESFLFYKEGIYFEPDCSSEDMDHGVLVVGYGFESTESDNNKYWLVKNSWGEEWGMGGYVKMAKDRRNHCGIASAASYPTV
Protocol: Purified recombinant enzyme was incubated with various concentrations of inhibitor in appropriate assay buffers in the presence of increasing concentrations of inhibitor. The formation of fluorescent product was monitored in duplicate reactions and the data was fit to appropriate equations to calculate the IC50 values.

CYP2C9, sequence (P11712 whole entry): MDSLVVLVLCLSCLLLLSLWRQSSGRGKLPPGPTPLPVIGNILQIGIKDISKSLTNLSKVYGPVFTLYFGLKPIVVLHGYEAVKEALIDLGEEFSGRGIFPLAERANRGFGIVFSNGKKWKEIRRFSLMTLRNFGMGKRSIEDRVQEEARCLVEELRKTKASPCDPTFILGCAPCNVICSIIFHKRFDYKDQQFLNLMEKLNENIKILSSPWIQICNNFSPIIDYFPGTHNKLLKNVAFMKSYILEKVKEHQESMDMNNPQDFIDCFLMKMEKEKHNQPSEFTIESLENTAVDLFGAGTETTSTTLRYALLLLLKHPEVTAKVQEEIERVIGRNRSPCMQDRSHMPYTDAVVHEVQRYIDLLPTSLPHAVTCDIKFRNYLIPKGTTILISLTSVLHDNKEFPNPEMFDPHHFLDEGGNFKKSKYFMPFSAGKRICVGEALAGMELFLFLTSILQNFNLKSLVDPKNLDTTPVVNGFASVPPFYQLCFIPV
CYP3A4, sequence (P08684 whole entry): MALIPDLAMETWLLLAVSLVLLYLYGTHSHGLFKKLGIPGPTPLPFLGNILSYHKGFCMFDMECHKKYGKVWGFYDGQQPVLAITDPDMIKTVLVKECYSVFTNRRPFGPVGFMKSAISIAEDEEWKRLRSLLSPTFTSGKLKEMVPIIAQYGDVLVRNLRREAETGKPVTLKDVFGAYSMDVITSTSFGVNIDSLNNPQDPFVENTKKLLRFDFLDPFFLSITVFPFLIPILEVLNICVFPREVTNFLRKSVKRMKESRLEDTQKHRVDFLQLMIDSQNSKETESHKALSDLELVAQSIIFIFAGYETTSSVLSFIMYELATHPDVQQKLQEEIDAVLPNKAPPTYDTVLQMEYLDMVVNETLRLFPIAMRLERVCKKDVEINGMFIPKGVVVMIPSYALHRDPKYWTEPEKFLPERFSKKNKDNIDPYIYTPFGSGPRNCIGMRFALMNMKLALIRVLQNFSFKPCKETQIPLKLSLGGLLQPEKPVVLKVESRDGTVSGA
CYP2C19, sequence (P33261 whole entry): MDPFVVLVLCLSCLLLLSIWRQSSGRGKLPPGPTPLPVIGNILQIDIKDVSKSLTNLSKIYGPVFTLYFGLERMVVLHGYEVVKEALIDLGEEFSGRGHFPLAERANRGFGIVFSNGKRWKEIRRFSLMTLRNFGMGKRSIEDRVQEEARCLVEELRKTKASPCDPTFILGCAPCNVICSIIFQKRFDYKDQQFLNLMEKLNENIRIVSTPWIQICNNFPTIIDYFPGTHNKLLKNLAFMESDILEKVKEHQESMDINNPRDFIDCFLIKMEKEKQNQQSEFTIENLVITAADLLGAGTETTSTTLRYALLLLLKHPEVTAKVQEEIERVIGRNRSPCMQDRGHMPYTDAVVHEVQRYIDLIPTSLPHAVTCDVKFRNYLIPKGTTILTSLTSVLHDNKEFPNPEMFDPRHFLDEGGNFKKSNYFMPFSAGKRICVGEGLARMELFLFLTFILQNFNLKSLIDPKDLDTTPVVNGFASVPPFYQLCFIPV
CYP2D6, sequence (P10635 whole entry): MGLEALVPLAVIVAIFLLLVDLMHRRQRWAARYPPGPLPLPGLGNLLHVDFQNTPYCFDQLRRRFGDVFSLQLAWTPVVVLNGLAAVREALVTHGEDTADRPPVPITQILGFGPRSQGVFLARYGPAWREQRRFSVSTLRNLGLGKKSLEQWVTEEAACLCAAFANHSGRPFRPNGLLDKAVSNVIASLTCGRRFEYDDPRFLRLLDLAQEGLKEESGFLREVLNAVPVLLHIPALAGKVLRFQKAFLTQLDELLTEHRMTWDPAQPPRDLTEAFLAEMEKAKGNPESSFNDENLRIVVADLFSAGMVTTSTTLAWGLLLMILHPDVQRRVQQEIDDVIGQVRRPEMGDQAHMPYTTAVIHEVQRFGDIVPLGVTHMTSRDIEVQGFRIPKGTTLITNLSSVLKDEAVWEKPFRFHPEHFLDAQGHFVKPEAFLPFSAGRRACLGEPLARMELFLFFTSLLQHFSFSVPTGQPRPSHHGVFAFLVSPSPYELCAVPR

For the compound `N#CSc1cnc(N)s1` [Compound 10], the “IC50 in intact Pala cells” value in data set [1] was “slightly larger IC50 values”. Besides, the “AEP activity after addition of reducing agent (reversibility)” value in [2] is reported as “regained a substantial amount of activity”. The “APP cleavage after OGD” value in data set [3] (1 μM compound) is “blocked”. The “APP cleavage after OGD, dose dependence” value in data set [3] (FIG. 7E) is listed as “dose-dependent decrease”.

As for `COc1ccc(N2CCN(C(c3ccc(N(C)C)cc3)c3nnnn3C(C)(C)C)CC2)cc1` (centres unmarked) [Compound 31], in data set [4], the Pe entry is on record as “<LLOQ”. Moreover, the CYP3A4-Midazolam inhibition in data set [5] (3 μM) is listed as −0.9%; in [5] (10 μM) it was 18.1%. The results for the CYP3A-Testosterone inhibition in data set [6] (3 μM) and in [6] (10 μM) were 2.5% and 0.7%, respectively. Also, the CYP2C9 inhibition in data set [7] (3 μM) is 47.8%; in data set [7] (10 μM), 69.2%. Further, the results for the CYP2D6 inhibition in data set [8] (3 μM) and in data set [8] (10 μM) were 9.9% and 1.4%, respectively. Moreover, the CYP2C19 inhibition in data set [9] (3 μM) amounted to 37.7%; in data set [9] (10 μM) it was 55.7%. Moreover, the CYP1A2 inhibition was 13.5% in data set [10] (3 μM) and 10.3% in data set [10] (10 μM). In addition, the “APP cleavage after OGD” value in [3] (0.1 μM compound) is on record as “blocked”. Also, in [11], the “Caco-2 permeability in words” value was “highly permeable”. Further, the “A −>B Papp” value in data set [11] (Table 1) was 19.3 10^−6 cm · s^−1. Further, the “B −> A Papp” value in data set [11] (Table 1) is reported as 17.4 10^−6 cm · s^−1. Besides, the RE in data set [11] (Table 1) amounted to 0.9. Besides, the “Mean Remaining Parent (NADPH-free)” value is 75% in data set [12] and 86% in [13]. For the same compound, the “Mean Remaining Parent (with NADPH)” value in [12] (30 min) is listed as 12%; in data set [13], 16%.

As to `Cn1c(=O)c2c(nc(S)n2C)n(C)c1=O` [Compound 38D-16], the “selectivity for AEP over Cathepsin-L” value in [14] is reported as 500 fold. In [11] (table of derivatives), the “A −>B Papp” value is reported as 0.9 10^−6 cm · s^−1, the “B −> A Papp” value is given as 3.0 10^−6 cm · s^−1 and the RE is on record as 3.3.

As to `Cn1c(S)nc2c1c(=O)n(Cc1ccccc1)c(=O)n2C` [Compound 38D-22], in data set [11] (table of derivatives), the “A −>B Papp” value is listed as 10.0 10^−6 cm · s^−1, the “B −> A Papp” value is given as 30.5 10^−6 cm · s^−1 and the RE amounted to 3.0.

In the case of `CNC(=C[N+](=O)[O-])NCCSCc1ccc(CN(C)C)o1` [Ranitidine, reference compound], in [11] (table of derivatives), the “A −>B Papp” value is listed as 0.2 10^−6 cm · s^−1 and the RE was found to be 8.1.

These data come from patent US10759803B2, “Asparagine endopeptidase (AEP) inhibitors for managing cancer and compositions related thereto” (priority 2014, dated 2020).
